Test results published in the supplement of paper PMC10307832.

What was measured:
Experiment in all cases: relative viability (nuclei count vs DMSO), 5 days (fraction); higher = more cells survive
Ponatinib + Palbociclib = compound: Cc1ccc(C(=O)Nc2ccc(CN3CCN(C)CC3)c(C(F)(F)F)c2)cc1C#Cc1cnc2cccnn12 [Ponatinib] + CC(=O)c1c(C)c2cnc(Nc3ccc(N4CCNCC4)cn3)nc2n(C2CCCC2)c1=O [Palbociclib] (partner 0.5 µM)
Outline: (§1)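 The day after seeding in 1536-well plates, lung cancer cell lines were treated by pin tool with a single drug, or with a fixed anchor-drug dose together with five library-drug doses (not always all listed) in √10 steps. After 5 days, a combined fix-and-stain solution (final 0.05% Triton X-100, 1% formaldehyde, 1 ug/ml Hoechst) was added. Nuclei counted on 4× images gave relative viability as treated counts over vehicle counts, reported as the median of duplicate plates.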

Ponatinib + Navitoclax = compound: Cc1ccc(C(=O)Nc2ccc(CN3CCN(C)CC3)c(C(F)(F)F)c2)cc1C#Cc1cnc2cccnn12 [Ponatinib] + CC1(C)CCC(c2ccc(Cl)cc2)=C(CN2CCN(c3ccc(C(=O)NS(=O)(=O)c4ccc(N[C@H](CCN5CCOCC5)CSc5ccccc5)c(S(=O)(=O)C(F)(F)F)c4)cc3)CC2)C1 [Navitoclax] (partner 0.5 µM)
Outline: as §1

Pazopanib + Crizotinib = compound: Cc1ccc(Nc2nccc(N(C)c3ccc4c(C)n(C)nc4c3)n2)cc1S(N)(=O)=O [Pazopanib] + C[C@@H](Oc1cc(-c2cnn(C3CCNCC3)c2)cnc1N)c1c(Cl)ccc(F)c1Cl [Crizotinib] (partner 1 µM)
Outline: as §1

Pazopanib + Linsitinib = compound: Cc1ccc(Nc2nccc(N(C)c3ccc4c(C)n(C)nc4c3)n2)cc1S(N)(=O)=O [Pazopanib] + C[C@]1(O)C[C@@H](c2nc(-c3ccc4ccc(-c5ccccc5)nc4c3)c3c(N)nccn32)C1 [Linsitinib] (partner 1 µM)
Outline: as §1

Cell Line	relative viability (Ponatinib + Palbociclib; first compound 0.002 µM)	relative viability (Ponatinib + Palbociclib; first compound 0.006325 µM)	relative viability (Ponatinib + Palbociclib; first compound 0.06325 µM)	relative viability (Ponatinib + Palbociclib; first compound 0.2 µM)	relative viability (Ponatinib + Navitoclax; first compound 0.002 µM)	relative viability (Ponatinib + Navitoclax; first compound 0.006325 µM)	relative viability (Ponatinib + Navitoclax; first compound 0.06325 µM)	relative viability (Ponatinib + Navitoclax; first compound 0.2 µM)	relative viability (Pazopanib + Crizotinib; first compound 0.01 µM)	relative viability (Pazopanib + Crizotinib; first compound 0.03162 µM)	relative viability (Pazopanib + Crizotinib; first compound 0.1 µM)	relative viability (Pazopanib + Crizotinib; first compound 0.3162 µM)	relative viability (Pazopanib + Crizotinib; first compound 1 µM)	relative viability (Pazopanib + Linsitinib; first compound 0.01 µM)	relative viability (Pazopanib + Linsitinib; first compound 0.03162 µM)	relative viability (Pazopanib + Linsitinib; first compound 0.1 µM)	relative viability (Pazopanib + Linsitinib; first compound 0.3162 µM)	relative viability (Pazopanib + Linsitinib; first compound 1 µM)
201T	0.367	0.359	0.351	0.328	1.2	1.21	1.22	1.23	1.05	1.07	1.03	1.06	1.06	0.942	1.04	1.06	1.06	0.989
A549	–	–	–	–	1.17	1.11	1.37	1.16	0.813	0.855	0.709	0.692	0.732	0.452	0.638	0.591	0.598	0.757
A-427	0.511	0.535	0.528	0.438	0.916	0.971	1.07	0.854	1.01	0.934	0.967	0.788	0.818	1.09	1.09	1.13	1.14	1.16
ABC-1	0.571	0.693	0.877	0.646	–	–	–	–	1.27	1.04	0.873	0.986	1.11	0.835	0.917	0.751	0.738	0.779
Calu-6	–	–	–	–	0.828	0.682	0.941	0.717	0.853	0.821	0.81	0.764	0.762	0.865	1.07	0.957	0.908	1.04
ChaGo-K-1	0.887	0.964	0.936	0.856	0.914	1.18	1.05	0.954	1.18	1.19	0.997	1.23	1.06	–	–	–	–	–
EBC-1	–	–	–	–	0.504	0.534	0.358	0.304	0.224	0.202	0.197	0.184	0.187	0.964	0.979	0.977	0.922	0.979
IA-LM	–	–	–	–	0.658	0.62	0.749	0.684	0.93	–	0.938	0.843	0.659	0.428	0.553	0.527	0.613	0.622
LCLC-103H	0.464	0.517	0.491	0.431	–	–	–	–	0.968	1.03	1.14	1.06	1.24	0.846	1.22	1.06	1.04	1.14
NCI-H358	0.137	0.129	0.148	0.136	–	–	–	–	0.722	0.688	0.518	0.622	0.478	0.875	0.626	0.82	0.993	0.821
NCI-H522	1.05	0.982	1.18	0.814	–	–	–	–	–	–	–	–	–	–	–	–	–	–
NCI-H596	–	–	–	–	0.845	0.969	1.03	0.733	0.905	1.15	1.01	0.986	0.926	0.833	1.12	1.24	1.06	1.03
NCI-H650	0.313	0.321	0.295	0.314	–	–	–	–	0.755	0.907	0.608	0.784	0.603	0.738	1.1	0.808	0.92	0.839
NCI-H661	0.412	0.412	0.434	0.416	–	–	–	–	1.13	0.976	1.03	0.998	0.987	0.44	0.637	0.581	0.541	0.672
NCI-H1299	–	–	–	–	1.05	1.03	1.1	1.01	0.983	0.913	0.921	0.969	0.892	0.902	1.02	1.01	0.97	0.932
NCI-H1395	0.626	0.671	0.572	0.47	–	1.15	1.09	0.977	–	–	–	–	–	0.983	1.27	1.07	0.992	1.05
NCI-H1563	–	–	–	–	–	–	–	–	0.963	0.88	0.894	0.878	0.888	1.13	1.18	1.25	1.3	1.18
NCI-H1648	0.266	0.245	0.246	0.252	–	–	–	–	–	–	–	–	–	–	–	–	–	–
NCI-H1650	0.345	0.365	0.413	0.335	1.1	1.22	1.49	0.999	1.09	1	1	0.857	0.965	–	–	–	–	–
NCI-H1703	–	–	–	–	0.856	0.943	0.278	0.205	0.587	0.628	0.261	0.215	0.221	0.441	–	0.264	0.243	0.301
NCI-H1793	0.328	0.327	0.394	0.413	0.495	0.422	0.54	0.478	–	–	–	–	–	–	0.871	0.835	0.83	0.905
NCI-H2170	0.361	0.431	0.362	0.377	0.643	0.661	0.684	0.765	1.21	1.32	1.26	1.15	1.14	–	–	–	–	–
NCI-H2342	0.548	0.522	0.461	0.498	–	–	–	–	–	–	–	–	–	–	–	–	–	–
SW 900	0.484	0.485	0.569	0.516	–	–	–	–	–	–	–	–	–	–	–	–	–	–
